Columns and labels:
Agaricus bisporus [1] = experiment: Growth of Agaricus bisporus after spraying MeJA solution at mushroom bud stage; assay type: in vivo; conditions: for Diameter of Pileus / Diameter of Stipe / Thickness of Pileus / Weight: 30 mL/m^2 spray
Protocol: Experiment of promoting the growth and preservation quality of Agaricus bisporus (1) An ethanol-water solvent with an ethanol concentration (by volume fraction) of 2% was prepared, and then the methyl jasmonate (MeJA) was dissolved in the ethanol-water solvent to prepare MeJA solutions at concentrations respectively of 10, 50, 100, and 200 μmol/L.
(2) The aforementioned MeJA solutions were each used as an inducer and poured into an automatic spraying device, and were each uniformly sprayed onto the surface of Agaricus bisporus when it was grown to the mushroom bud stage, where the spraying dose of 30 mL/m^2 was used as the treatment group. At the same time, the treatments with water and a 2% ethanol solution were as a blank group and a control group, respectively. The subsequent culturing conditions were 17° C. and a humidity of 90%.
(3) Photographing and sampling are performed every 24 h during the treatment. After sampling, the weight (m) of a single mushroom was weighed and recorded, and the diameter of pileus (a), the diameter of stipe (b) and the thickness of pileus (c) were measured with a microcalliper and recorded to calculate the average values, and the results were shown in Table 1.

Agaricus bisporus [2] = experiment: Post-harvest storage (preservation quality) of Agaricus bisporus at 4° C., relative humidity 90-95%; assay type: in vivo
Protocol: Experiment of promoting the growth and preservation quality of Agaricus bisporus (1) An ethanol-water solvent with an ethanol concentration (by volume fraction) of 2% was prepared, and then the methyl jasmonate (MeJA) was dissolved in the ethanol-water solvent to prepare MeJA solutions at concentrations respectively of 10, 50, 100, and 200 μmol/L. (2) The aforementioned MeJA solutions were each used as an inducer and poured into an automatic spraying device, and were each uniformly sprayed onto the surface of Agaricus bisporus when it was grown to the mushroom bud stage, where the spraying dose of 30 mL/m^2 was used as the treatment group. At the same time, the treatments with water and a 2% ethanol solution were as a blank group and a control group, respectively. The subsequent culturing conditions were 17° C. and a humidity of 90%. The Agaricus bisporus was stored under conditions of 4° C. and a relative humidity of 90-95% after harvested, so as to observe its appearance and quality, and the results were as shown in FIG. 2.

[3] = 10 μM MeJA, day 1 after treatment
[4] = 10 μM MeJA, day 2 after treatment
[5] = 50 μM MeJA, day 1 after treatment
[6] = 50 μM MeJA, day 2 after treatment
[7] = 100 μM MeJA, day 1 after treatment
[8] = 100 μM MeJA, day 2 after treatment
[9] = 200 μM MeJA, day 1 after treatment
[10] = 200 μM MeJA, day 2 after treatment
[11] = methyl jasmonate solution of 10-200 μmol/l sprayed at mushroom bud stage

## CC/C=C\CC1C(=O)CCC1CC(=O)OC (stereo not drawn) [MeJA, methyl jasmonate]
Agaricus bisporus [1]; [3]
  Diameter of Pileus: 20.21 ± 0.67 mm
  Diameter of Stipe: 12.60 ± 0.91 mm
  Thickness of Pileus: 12.07 ± 0.48 mm
  Weight: 3.83 ± 0.01 g
Agaricus bisporus [1]; [4]
  Diameter of Pileus: 37.04 ± 0.47 mm
  Diameter of Stipe: 18.17 ± 0.60 mm
  Thickness of Pileus: 21.49 ± 0.50 mm
  Weight: 16.27 ± 0.27 g
Agaricus bisporus [1]; [5]
  Diameter of Pileus: 24.29 ± 0.75 mm
  Diameter of Stipe: 13.91 ± 0.66 mm
  Thickness of Pileus: 14.80 ± 0.49 mm
  Weight: 6.81 ± 0.09 g
Agaricus bisporus [1]; [6]
  Diameter of Pileus: 39.01 ± 0.67 mm
  Diameter of Stipe: 18.76 ± 0.38 mm
  Thickness of Pileus: 22.29 ± 0.21 mm
  Weight: 20.34 ± 0.20 g
Agaricus bisporus [1]; [7]
  Diameter of Pileus: 20.52 ± 0.33 mm
  Diameter of Stipe: 14.14 ± 0.35 mm
  Thickness of Pileus: 12.28 ± 0.32 mm
  Weight: 3.69 ± 0.06 g
Agaricus bisporus [1]; [8]
  Diameter of Pileus: 31.97 ± 0.78 mm
  Diameter of Stipe: 16.30 ± 0.82 mm
  Thickness of Pileus: 18.73 ± 0.82 mm
  Weight: 11.18 ± 0.10 g
Agaricus bisporus [1]; [9]
  Diameter of Pileus: 20.79 ± 0.57 mm
  Diameter of Stipe: 13.56 ± 0.83 mm
  Thickness of Pileus: 12.70 ± 0.19 mm
  Weight: 3.48 ± 0.14 g
Agaricus bisporus [1]; [10]
  Diameter of Pileus: 30.71 ± 0.69 mm
  Diameter of Stipe: 17.94 ± 0.39 mm
  Thickness of Pileus: 17.5 ± 0.48 mm
  Weight: 10.10 ± 0.14 g
Agaricus bisporus [1]; 10-100 μmol/L, compared with blank group and ethanol group (FIG. 1, Table 1)
  effect on growth of Agaricus bisporus: significant effect of promoting the growth
Agaricus bisporus [1]; [11]
  improvement of yield: 20%-25%
Agaricus bisporus [2]; 10-200 μmol/L, compared with blank group and ethanol group, storage at 4° C., RH 90-95% (FIG. 2)
  preserving effect on Agaricus bisporus: significant preserving effect
Agaricus bisporus [2]; [11]
  extension of post-harvest storage time: 2 to 4 days

From patent US20200178527A1, “Method for Promoting Growth and Preservation Quality of Agaricus Bisporus” (Nanjing University of Finance & Economics, priority 2018, published 2020)
